From ChEMBL document CHEMBL4266048, “Halogenated Meroditerpenoids from a South Pacific Collection of the Red Alga Callophycus serratus” (J Nat Prod, 2018)
The source made the active and inactive calls. The calls are words filed in the database; no cut-off is given here.

System: HL-60
Assay: Cytotoxicity against human HL60 cells after 48 hrs by MTT assay
Format: functional, cell-based
Settings: for IC50: HL-60, 48 h

SMILES | Activity | IC50 [µM]
C=C1CC=CC(C)(C)[C@H]1CC[C@@]1(C)[C@H](Cc2cc(Br)ccc2O)/C(=C/I)CC[C@@H]1Br | inactive | 
CC[C@H](/C=C(/C)[C@@H]1C[C@@H](OC)C[C@H](O)C(C)(C)[C@@]2(O)O[C@@H](C[C@@H](OC)[C@H](O)C(=O)O1)C[C@@H](OC)[C@H]2O)CO |  | 10
CC1=C2Cc3cc(ccc3O)C(=O)OC(C)(C)[C@H](Br)CC[C@]3(C)O[C@H]3C[C@]2(C)[C@@H](Br)CC1 [BROMOPHYCOLIDE T] |  | 6
C=C1CC[C@@H](Br)C(C)(C)[C@H]1CC[C@@]1(C)[C@H](Cc2cc(Br)ccc2O)/C(=C/I)CC[C@@H]1Br |  | 5.1
CC1=C2Cc3cc(ccc3O)C(=O)O[C@H](C(C)(C)Br)CC[C@](C)(O)[C@H](Br)CC[C@]2(C)[C@@H](Br)CC1 |  | 6.2
